From patent publication US8697883B2, “Cyclopenta[C]pyrrole-2-carboxylate derivatives, preparation thereof and therapeutic use thereof” (Sanofi, priority 2009, dated 2014)

Columns and labels:
[1] = target: T1, enzyme FAAH (Fatty Acid Amide Hydrolase) (Mus musculus, UniProt O08914); experiment: FAAH radioenzymatic test, hydrolysis of anandamide [ethanolamine 1-3H] (protocol 1); assay type: biochemical; conditions: mouse brain membrane homogenate, anandamide 10 μM, 20 min preincubation at 25° C., read-out: IC50 (concentration that inhibits 50% of the control enzymatic activity of FAAH)
T1 construct: The membrane homogenates are prepared extemporaneously by homogenizing the tissues; from tissue; host or cells: mouse brain minus cerebellum, membrane/brain homogenate
T1 sequence (O08914 1-579): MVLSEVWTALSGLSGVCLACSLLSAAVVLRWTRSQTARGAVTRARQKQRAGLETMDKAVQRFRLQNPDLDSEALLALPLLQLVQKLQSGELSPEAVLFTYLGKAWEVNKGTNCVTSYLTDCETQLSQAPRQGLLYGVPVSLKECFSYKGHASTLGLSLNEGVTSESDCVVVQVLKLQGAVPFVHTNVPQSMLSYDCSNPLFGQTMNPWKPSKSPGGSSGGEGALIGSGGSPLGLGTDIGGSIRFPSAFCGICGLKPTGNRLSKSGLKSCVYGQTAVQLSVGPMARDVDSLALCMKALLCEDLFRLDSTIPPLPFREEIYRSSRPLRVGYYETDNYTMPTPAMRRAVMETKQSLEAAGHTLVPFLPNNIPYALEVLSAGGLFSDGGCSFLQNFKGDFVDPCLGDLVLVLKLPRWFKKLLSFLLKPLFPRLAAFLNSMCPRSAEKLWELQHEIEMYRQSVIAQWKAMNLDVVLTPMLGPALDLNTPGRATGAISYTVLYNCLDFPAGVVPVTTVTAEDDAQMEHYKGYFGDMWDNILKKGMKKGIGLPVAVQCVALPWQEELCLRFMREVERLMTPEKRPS
Description: (§1) The compounds of the invention underwent pharmacological tests to determine their inhibitory effect on the enzyme FAAH (Fatty Acid Amide Hydrolase).
Thus, mouse brains (minus the cerebellum) are removed and stored at −80° C. The membrane homogenates are prepared extemporaneously by homogenizing the tissues using a Precellys® machine in reaction buffer (10 mM Tris-HCl, pH=8, 150 mM NaCl and 1 mM ethylenediaminetetraacetic acid (EDTA)). The enzymatic reaction is performed in 96-well Multiscreen filtration plates in a final volume of 70 μL. Reaction buffer supplemented with fatty acid-free bovine serum albumin (BSA, 1 mg/ml) is used for the enzymatic reaction and the dilution of the compounds and of the anandamide [ethanolamine 1-^3H]. The reaction buffer containing BSA (43 μL/well), the diluted test compounds at different concentrations (7 μL/well containing 1% DMSO) and the membrane preparation (10 μL/well, i.e. 200 μg of tissue per test) are successively added to the wells. After preincubation for 20 minutes of the compounds with the enzyme at 25° C., the reaction is started by adding anandamide [ethanolamine 1-^3H] (specific activity of 15-20 Ci/mmol) diluted with cold anandamide (10 μL/well, final concentration of 10 μM, 0.01 μCi per test). After incubation for 20 minutes at 25° C., the enzymatic reaction is stopped by adding a […] solution of active charcoal prepared in 1.5M NaCl buffer and 0.5 M HCl (50 μL/well). The mixture is stirred for 10 minutes and the aqueous phase containing the ethanolamine [1-^3H] is then recovered by filtration under vacuum and counted by liquid scintillation.

[2] = system: male OF1 mice; experiment: Test of analgesia: PBQ-induced abdominal stretching; assay type: in vivo, mouse; conditions: 30 mg/kg p.o. at 120 minutes
Description: The in vivo activity of the compounds of the invention was evaluated in a test of analgesia.
Thus, the intraperitoneal (i.p.) administration of PBQ (phenylbenzoquinone, 2 mg/kg in 0.9% sodium chloride solution containing 5% ethanol) to male OF1 mice weighing 25 to 30 g causes abdominal stretching, on average 30 torsions or contractions within a period of 5 to 15 minutes after injection. The test compounds are administered orally (p.o.) or intraperitoneally (i.p.) suspended in Tween 80 at 0.5%, 60 minutes or 120 minutes before the administration of PBQ. Under these conditions, the compounds of the invention that are the most powerful reduce by 35% to 80% the number of stretches induced with PBQ, over a dose range of between 1 and 30 mg/kg.

[3] = target: T1, enzyme FAAH (Fatty Acid Amide Hydrolase); experiment: FAAH fluorescent enzymatic test, hydrolysis of AAMC (protocol 2); assay type: biochemical; conditions: mouse brain homogenate, AAMC 10 μM, 20 min preincubation at 25° C., 40 min at 37° C., read-out: IC50 (concentration that inhibits 50% of the control enzymatic activity of FAAH)
Description: as §1
Thus, mouse brains (minus the cerebellum) are withdrawn and stored at −80° C. The brain homogenates are prepared extemporaneously by homogenizing the tissues using a Precellys® machine in reaction buffer (10 mM Tris-HCl, pH=8, 150 mM NaCl and 1 mM ethylenediaminetetraacetic acid (EDTA)). The enzymatic reaction is performed in black polystyrene 384-well plates in a final volume of 50 μL. Reaction buffer supplemented with fatty acid-free bovine serum albumin (BSA, 1 mg/ml) is used for the enzymatic reaction, the dilution of the compounds and the dilution of the AAMC. Reaction buffer containing the BSA (25 μL/well), the diluted test compounds at different concentrations (5 μL/well containing 1% DMSO) and the membrane preparation (10 μL/well, i.e. 200 μg of tissue per test) are successively added to the wells. After preincubation for 20 minutes of the compounds with the enzyme at 25° C., the reaction is started by adding 10 μL of substrate per well (AAMC, final concentration of 10 μM). After incubation for 40 minutes at 37° C., the aminomethyl coumarin (AMC) produced is measured by fluorescent counting (Envision plate reader).

CCOc1ccc2ccc(O[C@H]3C[C@@H]4CN(C(=O)OCc5nccs5)C[C@@H]4C3)cc2c1 [Compound 3, thiazol-2-ylmethyl (3aR,5s,6aS)-5-[(7-ethoxy-2-naphthyl)oxy]hexahydrocyclopenta[c]pyrrole-2(1H)-carboxylate]
IC50 [1]: 3.5 nM

O=C(OCc1csnn1)N1C[C@H]2C[C@H](Oc3ccc(Cl)cc3)C[C@H]2C1 [Compound 7, 1,2,3-thiadiazol-4-ylmethyl (3aR,5s,6aS)-5-(4-chlorophenoxy)hexahydrocyclopenta[c]pyrrole-2(1H)-carboxylate]
IC50 [1]: 89 nM
melting point: 122 to 124 °C

NC(=O)c1cc(COC(=O)N2C[C@H]3C[C@H](Oc4ccc(Cl)cc4)C[C@H]3C2)on1 [Compound 12, (3-carbamoylisoxazol-5-yl)methyl (3aR,5s,6aS)-5-(4-chlorophenoxy)hexahydrocyclopenta[c]pyrrole-2(1H)-carboxylate]
IC50 [1]: 19 nM

CCOc1ccc2ccc(OC3CC4CN(C(=O)OCc5nc(C(=O)NC)cs5)CC4C3)cc2c1 [Compound 23, [4-(methylcarbamoyl)thiazol-2-yl]methyl (3aR,5s,6aS)-5-[(7-ethoxy-2-naphthyl)oxy]hexahydrocyclopenta[c]pyrrole-2(1H)-carboxylate]
IC50 [1]: 34 nM
melting point: 149 to 151 °C

CCOc1ccc2ccc(O[C@H]3C[C@@H]4CN(C(=O)OCc5cc(C(N)=O)no5)C[C@@H]4C3)cc2c1 [Compound 24, (3-carbamoylisoxazol-5-yl)methyl (3aR,5s,6aS)-5-[(7-ethoxy-2-naphthyl)oxy]hexahydrocyclopenta[c]pyrrole-2(1H)-carboxylate]
reduction of the number of stretches induced with PBQ [2]: 50%

CNC(=O)c1cc(COC(=O)N2C[C@H]3C[C@H](Oc4ccc(Cl)c5ccccc45)C[C@H]3C2)on1 [Compound 28, [3-(methylcarbamoyl)isoxazol-5-yl]methyl (3aR,5s,6aS)-5-[(4-chloro-1-naphthyl)oxy]hexahydrocyclopenta[c]pyrrole-2(1H)-carboxylate]
IC50 [1]: 12 nM
melting point: 131 to 133 °C

NC(=O)c1cc(COC(=O)N2C[C@H]3C[C@H](Oc4ccc(Cl)c(F)c4)C[C@H]3C2)on1 [Compound 34, (3-carbamoylisoxazol-5-yl)methyl (3aR,5s,6aS)-5-(4-chloro-3-fluorophenoxy)hexahydrocyclopenta[c]pyrrole-2(1H)-carboxylate]
IC50 [1]: 3.2 nM
melting point: 100 to 102 °C

CNC(=O)c1cc(COC(=O)N2C[C@H]3C[C@H](Oc4ccc(Cl)c(F)c4)C[C@H]3C2)on1 [Compound 35, [3-(methylcarbamoyl)isoxazol-5-yl]methyl (3aR,5s,6aS)-5-(4-chloro-3-fluorophenoxy)hexahydrocyclopenta[c]pyrrole-2(1H)-carboxylate]
reduction of the number of stretches induced with PBQ [2]: 50%

CN(C)C(=O)c1cc(COC(=O)N2C[C@H]3C[C@H](Oc4ccc(F)cc4)C[C@H]3C2)on1 [Compound 44, (3-dimethylcarbamoylisoxazol-5-yl)methyl (3aR,5s,6aS)-5-(4-fluorophenoxy)hexahydrocyclopenta[c]pyrrole-2(1H)-carboxylate]
IC50 [3]: 7.4 nM

CNC(=O)c1cc(COC(=O)N2C[C@H]3C[C@H](Oc4ccc(-c5ccc(F)cc5)cc4)C[C@H]3C2)on1 [Compound 45, (3-methylcarbamoylisoxazol-5-yl)methyl (3aR,5s,6aS)-5-[(4′-fluorobiphenyl-4-yl)oxy]hexahydrocyclopenta[c]-pyrrole-2(1H)-carboxylate]
IC50 [3]: 0.47 nM
melting point: 154 to 156 °C
